Measured values taken from US12551500B2, “C6′-substituted locked nucleic acid-modified cap analog and use thereof” (Hangzhou Tianlong Pharmaceutical Co., Ltd., priority 2024, dated 2026).

Key:
BALB/C mice = test: In vivo imaging of protein expressed by LNP-carrying Fluc-mRNA in mice; conditions: for Average radiation intensity: female BALB/C mice; for average radiation intensity, times that of N-7413: ratio to N-7413; for average radiation intensity, times that of YK-CAP-001: ratio to YK-CAP-001; for average radiation intensity, times that of YK-CAP-002: ratio to YK-CAP-002; for average radiation intensity, times that of compound 14: ratio to compound 14; for average radiation intensity, times that of m6A: ratio to m6A
DCP2 enzyme = biological target: T1, DCP2 enzyme (Schizosaccharomyces pombe, UniProt O13828); test: Decapping enzyme stability test; assay type: biochemical; conditions: for Decapping rate (%) of DCP2 enzyme: 30 pmol RNA, 50 U mRNA decapping enzyme, 37° C., 45 minutes; for decapping rate lower than that of HN3002: difference to HN3002; for decapping rate lower than that of N-7413: difference to N-7413; for decapping rate lower than that of YK-CAP-001: difference to YK-CAP-001; for decapping rate lower than that of YK-CAP-002: difference to YK-CAP-002; for decapping rate lower than that of compound 14: difference to compound 14; for decapping rate lower than that of m6A: difference to m6A
T1 construct: purchased New England Biolabs
T1 sequence (O13828 1-243 limits assumed): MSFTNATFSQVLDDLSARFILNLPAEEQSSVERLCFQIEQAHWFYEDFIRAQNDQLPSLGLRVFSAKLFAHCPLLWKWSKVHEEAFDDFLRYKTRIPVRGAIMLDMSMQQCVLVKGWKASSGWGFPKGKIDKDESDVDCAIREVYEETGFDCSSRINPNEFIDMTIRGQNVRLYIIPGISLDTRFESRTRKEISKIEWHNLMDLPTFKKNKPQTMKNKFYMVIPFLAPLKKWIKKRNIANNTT
T1 sequence (Q9P805 1-127 partner): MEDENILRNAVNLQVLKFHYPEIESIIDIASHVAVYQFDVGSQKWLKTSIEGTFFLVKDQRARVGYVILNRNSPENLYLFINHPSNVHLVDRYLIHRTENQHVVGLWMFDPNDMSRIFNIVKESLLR
T1 sequence (Q10108 155-180 partner limits assumed): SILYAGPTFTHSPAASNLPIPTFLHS

[1] = Characterization of lipid nanoparticles encapsulating Fluc-mRNA; assay type: physicochemical; conditions: for Particle size: LNP (YK-009/DSPC/cholesterol/DMG-PEG2000) encapsulating Fluc-mRNA transcribed using the cap analog; for PDI: LNP encapsulating Fluc-mRNA transcribed using the cap analog; for EE: encapsulation efficiency of LNP encapsulating Fluc-mRNA transcribed using the cap analog
[2] = 6 h after intramuscular injection of LNP Fluc-mRNA
[3] = 12 h after intramuscular injection of LNP Fluc-mRNA
[4] = 24 h after intramuscular injection of LNP Fluc-mRNA
[5] = 48 h after intramuscular injection of LNP Fluc-mRNA
[6] = 96 h after intramuscular injection of LNP Fluc-mRNA
[7] = 168 h after intramuscular injection of LNP Fluc-mRNA

Structure (SMILES) | Average radiation intensity (BALB/C mice; [2]) [p/s/cm^2/sr] | Average radiation intensity (BALB/C mice; [3]) [p/s/cm^2/sr] | Average radiation intensity (BALB/C mice; [4]) [p/s/cm^2/sr] | Average radiation intensity (BALB/C mice; [5]) [p/s/cm^2/sr] | Average radiation intensity (BALB/C mice; [6]) [p/s/cm^2/sr] | Average radiation intensity (BALB/C mice; [7]) [p/s/cm^2/sr] | average radiation intensity, times that of N-7413 (BALB/C mice; at 6 hours) [times] | average radiation intensity, times that of YK-CAP-001 (BALB/C mice; at 6 hours) [times] | average radiation intensity, times that of YK-CAP-002 (BALB/C mice; at 6 hours) [times] | average radiation intensity, times that of compound 14 (BALB/C mice; at 6 hours) [times] | average radiation intensity, times that of m6A (BALB/C mice; at 6 hours) [times] | average radiation intensity, times that of N-7413 (BALB/C mice; at 96 hours) [times] | average radiation intensity, times that of YK-CAP-001 (BALB/C mice; at 96 hours) [times] | average radiation intensity, times that of YK-CAP-002 (BALB/C mice; at 96 hours) [times] | average radiation intensity, times that of compound 14 (BALB/C mice; at 96 hours) [times] | average radiation intensity, times that of m6A (BALB/C mice; at 96 hours) [times] | Decapping rate (%) of DCP2 enzyme (DCP2 enzyme) [%] | decapping rate lower than that of HN3002 (DCP2 enzyme) [%] | decapping rate lower than that of N-7413 (DCP2 enzyme) [%] | decapping rate lower than that of YK-CAP-001 (DCP2 enzyme) [%] | also measured
COC1C(OP(=O)([O-])OC[C@H]2O[C@@H](n3cnc4c(=O)[nH]c(N)nc43)C(O)C2O)[C@@H](COP(=O)(O)OP(=O)(O)OP(=O)(O)OC[C@]23O[C@@H]([n+]4cn(C)c5c(=O)[nH]c(N)nc54)C(O[C@H]2CCS(=O)(=O)N(C)C)C3O)O[C@H]1n1cnc2c(N)ncnc21 (stereo partly shown) [YK-CAP-006] | 3303900 | 2067750 | 976550 | 798075 | 75840 | 15660 | 1.2 | 1.9 | 2.3 | 1.3 | 1.8 | 1.1 | 1.7 | 3.6 | 1.3 | 2.3 | 11.2 | 12.0 | 37.4 | 15.1 | decapping rate lower than that of YK-CAP-002 (DCP2 enzyme): 13.4%; decapping rate lower than that of compound 14 (DCP2 enzyme): 17.6%; decapping rate lower than that of m6A (DCP2 enzyme): 16.3%; Particle size [1]: 96.64 nm; PDI [1]: 0.029; EE [1]: 96.3%
COC1C(OP(=O)([O-])OC[C@H]2O[C@@H](n3cnc4c(=O)[nH]c(N)nc43)C(O)C2O)[C@@H](COP(=O)(O)OP(=O)(O)OP(=O)(O)OC[C@]23O[C@@H]([n+]4cn(C)c5c(=O)[nH]c(N)nc54)C(O[C@H]2CC(=O)N(C)C)C3O)O[C@H]1n1cnc2c(N)ncnc21 (stereo partly shown) [YK-CAP-003] | 3212750 | 2454750 | 1053625 | 700200 | 57893 | 19016 | 1.2 | 1.9 | 2.2 | 1.2 | 1.8 | 0.8 | 1.3 | 2.8 | 1.0 | 1.7 | 11.8 | 11.4 | 36.8 | 14.5 | decapping rate lower than that of YK-CAP-002 (DCP2 enzyme): 12.8%; decapping rate lower than that of compound 14 (DCP2 enzyme): 17.0%; decapping rate lower than that of m6A (DCP2 enzyme): 15.7%; Particle size [1]: 82.83 nm; PDI [1]: 0.032; EE [1]: 95.6%
